We go through nine compounds from patent US5326883A, “Oxime ether derivatives having lipoxygenase inhibitory activity” (Abbott Laboratories, priority 1992, dated 1994).

pIC50: −log10 of the molar value.

In the first assay the test system is biosynthesis of leukotrienes. The assay is described as follows: Inhibition of leukotriene biosynthesis in vivo, rat peritoneal anaphylaxis model, oral. The note with it: Oral Dose at 30 μmol/kg, gavage one hour prior to antigen challenge; rat peritoneal fluid 15 min after challenge. The procedure:
Inhibition of the biosynthesis of leuktrienes in vivo after oral administration of compound was determined using a rat peritoneal anaphylaxis model in a similar manner as that described by Young and coworkers (Young, P. R.; Dyer, R. D.; Carter, G. W. Fed. Proc., Fed. Am. Soc. Exp. Biol. 1985, 44, 1185). In this model rats were injected intraperitoneally (ip) with rabbit antibody to bovine serum albumin (BSA) and three hours later injected ip with BSA to induce an antgen-antibody response. Rats were sacrificed 15 minutes after this challenge and the peritoneal fluids were collected and analyzed for leukotriene levels. Test compounds were administered by gavage one hour prior to the antigen challenge. Percent inhibition values were determined by comparing the treatment group to the mean of the control group.
As for `CC(CO/N=C\c1ccc(Oc2ccc(F)cc2)o1)N(O)C(N)=O` (stereo not shown) [Example 6, 5-(4-fluorophenoxy)fur-2-ylmethyl-Z-oximyl-O-2-(1-methyl)ethyl-N-hydroxyurea], the “% Inhibition of Leukotrienes” value is reported as 70%.

For `CC(CO/N=C/c1ccc(Oc2ccc(F)cc2)o1)N(O)C(N)=O` (stereo not shown) [Example 7, 5-(4-fluorophenoxy)fur-2-ylmethyl-E-oximyl-O-2-(1-methyl)ethyl-N-hydroxyurea], the “% Inhibition of Leukotrienes” value is given as 56%.

As for `CC(CN(O)C(N)=O)O/N=C\c1ccc(Oc2ccc(F)cc2)o1` (stereo not shown) [Example 9, 5-(4-fluorophenoxy)fur-2-ylmethyl-Z-oximyl-O-2-(2-methyl)ethyl-N-hydroxyurea], the “% Inhibition of Leukotrienes” value was 64%.

The target in the next assay is T1, 5-Lipoxygenase (Homo sapiens, UniProt P09917).
T1 construct: Human heparinized whole blood was preincubated with test compounds or vehicle for 15 min; endogenous in cells; host or cells: human heparinized whole blood (blood leukocytes)
T1 sequence (P09917 1-674): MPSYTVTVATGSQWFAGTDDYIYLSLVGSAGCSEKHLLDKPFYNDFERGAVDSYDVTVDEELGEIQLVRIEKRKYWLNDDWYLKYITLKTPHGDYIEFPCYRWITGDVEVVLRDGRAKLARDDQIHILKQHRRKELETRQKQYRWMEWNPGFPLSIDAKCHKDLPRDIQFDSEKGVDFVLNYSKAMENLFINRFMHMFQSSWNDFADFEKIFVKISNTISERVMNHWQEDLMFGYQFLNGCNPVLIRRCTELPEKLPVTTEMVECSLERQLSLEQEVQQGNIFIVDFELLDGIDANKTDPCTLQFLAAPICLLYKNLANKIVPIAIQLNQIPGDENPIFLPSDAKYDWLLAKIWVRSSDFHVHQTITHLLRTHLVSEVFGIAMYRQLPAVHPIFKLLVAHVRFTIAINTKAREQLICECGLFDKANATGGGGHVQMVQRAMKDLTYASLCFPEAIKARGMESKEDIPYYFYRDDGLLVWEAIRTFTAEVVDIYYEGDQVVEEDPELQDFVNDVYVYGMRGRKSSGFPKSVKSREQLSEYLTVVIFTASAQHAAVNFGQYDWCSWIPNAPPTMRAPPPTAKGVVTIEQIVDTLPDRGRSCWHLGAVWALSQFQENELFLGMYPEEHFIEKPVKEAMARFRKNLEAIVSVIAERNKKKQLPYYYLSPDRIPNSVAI
The assay is described as follows: Calcium ionophore-induced LTB4 biosynthesis in human whole blood (5-lipoxygenase inhibition). The assay is classed as cell-based. The settings on record: human heparinized whole blood; 15 min preincubation at 37° C; A23187 8.3 μM, 30 min; LTB4 by radioimmunoassay. As for the experimental part:
Inhibition of leukotriene biosynthesis was evaluated in an assay, involving calcium ionophore-induced LTB4 biosynthesis expressed human whole blood. […] The methanol extract was analyzed for LTB4 using a commercially available radioimmunoassay. |In Vitro Inhibitory Potencies of Compounds of this Invention […] |in Human Whole Blood
Consider `CC(=NOCCN(O)C(N)=O)c1cc2ccccc2s1` [Example 1, 1-(benzo[b]thien-2-yl)ethyloximyl-O-2-ethyl-N-hydroxyurea], for which the pIC50 – broadly, −log10 of the IC50, conventionally taken in molar units – is 7.00.

With `CCCCCC=NOCCN(O)C(N)=O` [Example 2, hexyloximyl-O-2-ethyl-N-hydroxyurea], the pIC50 was 7.00.

With `NC(=O)N(O)CCON=Cc1cccn1Cc1ccc(Cl)cc1` [Example 3, 1-(4-chlorobenzyl)-pyrro-2-ylmethyloximyl-O-2-ethyl-N-hydroxyurea], the negative logarithm of the IC50 (pIC50) is 6.80.

As to `NC(=O)N(O)CCON=Cc1cccc(Oc2ccc(F)cc2)c1` [Example 4, 3-(4-fluorophenoxy)phenylmethyloximyl-O-2-ethyl-N-hydroxyurea], the pIC50 was 7.00.

As for `CC(CN(O)C(N)=O)O/N=C/c1ccc(Oc2ccc(F)cc2)o1` (stereo not shown) [Example 8, 5-(4-fluorophenoxy)fur-2-ylmethyl-E-oximyl-O-2-(2-methyl)ethyl-N-hydroxyurea], the pIC50 was 6.85.

Take `CC(CN(O)C(N)=O)O/N=C\c1ccc(Oc2ccc(F)cc2)o1` (stereo not shown) [Example 9, 5-(4-fluorophenoxy)fur-2-ylmethyl-Z-oximyl-O-2-(2-methyl)ethyl-N-hydroxyurea]: the negative-log IC50 (pIC50) is 7.00.

With `NC(=O)N(O)CCON=Cc1ccc(Sc2ccccc2)o1` [Example 10, 5-(phenylthio)fur-2-ylmethyloximyl-O-2-ethyl-N-hydroxyurea], the pIC50 is 7.00.
